Measurements published in the NIST ThermoML archive (doi:10.1016/j.jct.2016.10.009).

Assay: xn = mol fraction of the nth substance listed
Settings: Liquid, Vibrating tube method

CC(C)OC(C)C [diisopropyl ether] + CCC(C)O
mass density [kg/m3]
Settings	x2 = 0	x2 = 0.2036	x2 = 0.3227	x2 = 0.4464	x2 = 0.4973	x2 = 0.6595	x2 = 0.8482
293.15 K, 100 kPa	723.5	737.9	746.6	756.1	–	774.1	791.8
293.15 K, 1000 kPa	724.6	739	747.6	757	761.1	774.9	792.6
293.15 K, 5000 kPa	729.4	743.4	751.8	761.1	765	778.5	795.9
293.15 K, 10000 kPa	734.9	748.6	756.8	765.7	769.6	782.9	799.8
293.15 K, 15000 kPa	740	753.3	761.4	770.2	774	786.9	803.5
293.15 K, 20000 kPa	744.8	757.9	765.7	774.3	778.1	790.8	807.1
293.15 K, 25000 kPa	749.4	762.2	769.9	778.3	782	794.5	810.4
293.15 K, 30000 kPa	753.7	766.2	773.8	782.2	785.7	798	813.7
293.15 K, 35000 kPa	757.7	770.1	777.6	785.7	789.3	801.3	816.8
293.15 K, 40000 kPa	761.6	773.8	781.1	789.2	792.7	804.5	819.8
293.15 K, 45000 kPa	765.3	777.3	784.6	792.5	796	807.7	822.7
293.15 K, 50000 kPa	768.9	780.7	787.9	795.7	799.1	810.7	825.5
293.15 K, 55000 kPa	772.4	784	791.1	798.8	802.2	813.6	828.3
293.15 K, 60000 kPa	775.7	787.1	794.2	801.8	805.2	816.4	830.9
293.15 K, 65000 kPa	778.9	790.3	797.2	804.8	808.1	819.2	833.5
293.15 K, 70000 kPa	782	793.2	800.1	807.5	810.8	821.8	836
293.15 K, 80000 kPa	787.9	798.9	805.6	812.9	816.2	826.9	840.8
293.15 K, 90000 kPa	793.5	804.4	810.9	818.1	821.3	831.9	845.5
293.15 K, 100000 kPa	798.8	809.3	815.9	822.9	826	836.4	849.8
293.15 K, 110000 kPa	803.9	814.2	820.7	827.6	830.7	840.9	854.1
293.15 K, 120000 kPa	808.7	818.9	825.2	832.1	835.1	845.2	858.2
293.15 K, 130000 kPa	813.2	823.4	829.6	836.4	839.3	849.3	862.1
293.15 K, 140000 kPa	817.6	827.6	833.7	840.4	843.3	853.2	865.8
298.15 K, 100 kPa	718.3	732.9	741.7	751.2	755.4	769.4	787.5
298.15 K, 1000 kPa	719.6	734	742.8	752.2	756.4	770.3	788.3
298.15 K, 5000 kPa	724.5	738.6	747.1	756.3	760.5	774.1	791.7
298.15 K, 10000 kPa	730.2	743.9	752.2	761.2	765.2	778.5	795.7
298.15 K, 15000 kPa	735.6	748.8	757	765.8	769.7	782.8	799.6
298.15 K, 20000 kPa	740.5	753.5	761.5	770.1	773.9	786.7	803.2
298.15 K, 25000 kPa	745.2	757.9	765.7	774.2	777.9	790.5	806.6
298.15 K, 30000 kPa	749.6	762.1	769.8	778.1	781.8	794.1	810
298.15 K, 35000 kPa	753.7	766	773.6	781.7	785.4	797.5	813.1
298.15 K, 40000 kPa	757.8	769.8	777.3	785.3	788.9	800.8	816.2
298.15 K, 45000 kPa	761.6	773.4	780.8	788.7	792.2	804.1	819.2
298.15 K, 50000 kPa	765.2	776.9	784.2	792	795.5	807.1	822.1
298.15 K, 55000 kPa	768.8	780.3	787.5	795.2	798.6	810.1	824.9
298.15 K, 60000 kPa	772.2	783.5	790.6	798.2	801.6	812.9	827.6
298.15 K, 65000 kPa	775.4	786.6	793.7	801.2	804.5	815.7	830.2
298.15 K, 70000 kPa	778.6	789.7	796.6	804.1	807.4	818.5	832.8
298.15 K, 80000 kPa	784.6	795.5	802.3	809.6	812.8	823.7	837.7
298.15 K, 90000 kPa	790.3	801	807.7	814.9	818	828.7	842.4
298.15 K, 100000 kPa	795.7	806.1	812.7	819.8	822.9	833.3	846.9
298.15 K, 110000 kPa	800.8	811.1	817.6	824.5	827.5	837.9	851.2
298.15 K, 120000 kPa	805.6	815.8	822.1	829	832	842.1	855.3
298.15 K, 130000 kPa	810.3	820.3	826.5	833.3	836.3	846.3	859.2
298.15 K, 140000 kPa	814.6	824.6	830.9	837.5	840.4	850.3	863.1
313.15 K, 100 kPa	702.4	717.2	726.3	736.2	740.5	755.1	773.8
313.15 K, 1000 kPa	703.8	718.4	727.5	737.3	741.6	756.1	774.7
313.15 K, 5000 kPa	709.4	723.5	732.4	741.9	746.1	760.2	778.4
313.15 K, 10000 kPa	715.8	729.6	738.2	747.4	751.5	765.2	782.9
313.15 K, 15000 kPa	721.7	735	743.4	752.4	756.4	769.8	787.1
313.15 K, 20000 kPa	727.2	740.2	748.4	757.1	761	774.1	791.1
313.15 K, 25000 kPa	732.1	744.8	752.8	761.4	765.2	778	794.6
313.15 K, 30000 kPa	737.1	749.5	757.4	765.8	769.6	782.1	798.4
313.15 K, 35000 kPa	741.6	753.8	761.5	769.8	773.5	785.8	801.8
313.15 K, 40000 kPa	745.9	757.8	765.4	773.6	777.2	789.3	805.1
313.15 K, 45000 kPa	750	761.7	769.2	777.2	780.8	792.8	808.3
313.15 K, 50000 kPa	753.9	765.5	772.9	780.8	784.3	796.1	811.4
313.15 K, 55000 kPa	757.7	769.1	776.4	784.2	787.7	799.3	814.4
313.15 K, 60000 kPa	761.3	772.7	779.8	787.4	790.9	802.3	817.3
313.15 K, 65000 kPa	764.8	776	783.1	790.7	794.1	805.4	820.1
313.15 K, 70000 kPa	768.1	779.1	786.1	793.7	797	808.2	822.8
313.15 K, 80000 kPa	774.4	785.2	792.1	799.4	802.7	813.7	827.9
313.15 K, 90000 kPa	780.5	791	797.8	805	808.2	818.9	832.9
313.15 K, 100000 kPa	786.1	796.5	803.1	810.1	813.4	823.9	837.6
313.15 K, 110000 kPa	791.4	801.7	808.2	815.1	818.3	828.6	842.1
313.15 K, 120000 kPa	796.5	806.5	813	819.8	822.9	833	846.4
313.15 K, 130000 kPa	801.4	811.3	817.7	824.4	827.4	837.4	850.5
313.15 K, 140000 kPa	806	815.8	822	828.7	831.7	841.6	854.5
333.15 K, 100 kPa	680.5	695.4	704.8	715.1	719.6	734.7	754.2
333.15 K, 1000 kPa	682.1	696.9	706.3	716.4	720.9	735.9	755.4
333.15 K, 5000 kPa	688.9	703	712.1	721.9	726.3	740.8	759.7
333.15 K, 10000 kPa	696.4	709.9	718.7	728.2	732.4	746.5	764.8
333.15 K, 15000 kPa	703.2	716.4	724.8	734	738.1	751.8	769.6
333.15 K, 20000 kPa	709.4	722.2	730.4	739.3	743.4	756.7	774.1
333.15 K, 25000 kPa	715.1	727.6	735.7	744.4	748.3	761.3	778.2
333.15 K, 30000 kPa	720.5	732.7	740.5	749.1	752.9	765.7	782.3
333.15 K, 35000 kPa	725.6	737.5	745.2	753.6	757.3	769.8	786.2
333.15 K, 40000 kPa	730.3	742	749.6	757.8	761.5	773.7	789.8
333.15 K, 45000 kPa	734.8	746.3	753.7	–	–	–	–
